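Cultured in 96-well plates, cells were exposed to test compound for 48 hours across five concentrations. At the GI50, growth is halved.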 Calls of active or inactive are those of the source. No stated cut-off is given here; in the data, active = GI50 up to about 1.1 µM and inactive = higher.

Among the test systems are SW-620; EKVX; UO-31; IGROV-1; ACHN; HCT-15; KM12; HOP-62; SF-295; K562; HL-60; OVCAR-4; CCRF-CEM; DMS-114; SNB-75; HCT-116; NCI-H23; DU-145; Hs-578T; MDA-N.
Holding throughout (experiment): NCI tumour cell line growth inhibition, 48 h

As to `COc1ccc([C@H]2CC(=O)N3CCCC3N2)cc1` (stereo not given in full), the GI50 with SW-620 is > 100 µM (inactive); in the test on EKVX, > 100 µM (inactive); with UO-31, > 100 µM (inactive); in the test on IGROV-1, > 100 µM (inactive); with ACHN, > 100 µM (inactive); with HCT-15, greater than 100 µM. In addition, the GI50 in the test with KM12, with HOP-62, with SF-295, in the test on K562, in the test with HL-60 and in the test with OVCAR-4 was > 100 µM (inactive) each time. Besides, the GI50 in the test on CCRF-CEM, in the test with DMS-114, with SNB-75, in the test on HCT-116 and in the test with NCI-H23 was > 100 µM (inactive) each time.

Regarding `COC(=O)C1CC(C(=O)OC)c2nc3cc([N+](=O)[O-])ccc3nc21` (stereo not given), the GI50 in the test with SW-620 is 89.9 µM (inactive); with EKVX, > 81.3 µM (inactive); in the test with UO-31, 33.7 µM (inactive); in the test on IGROV-1, 80.7 µM (inactive); in the test on ACHN, 45.9 µM (inactive); with HCT-15, 17.8 µM. Also, the GI50 in the test with KM12 is 23.1 µM (inactive); in the test with HOP-62, > 52.8 µM (inactive); in the test on SF-295, 25.5 µM (inactive); in the test on K562, 14.7 µM (inactive); in the test on HL-60 it was 7.23 µM (inactive); with OVCAR-4, > 100 µM (inactive). Further, the GI50 in the test with CCRF-CEM is 9.53 µM (inactive); in the test on DMS-114 it was 16.3 µM (inactive); with SNB-75, > 61 µM (inactive); in the test with HCT-116, 33.7 µM (inactive); with NCI-H23, > 61.5 µM (inactive).

Consider `Cn1cnc([N+](=O)[O-])c1Sc1nc2cccnc2[nH]1`, for which the GI50 in the test on SW-620 is 49.9 µM (inactive); with EKVX, 28.5 µM (inactive); in the test with UO-31 it was 89.7 µM (inactive); in the test with IGROV-1, 71.4 µM (inactive); with ACHN it was > 100 µM (inactive); in the test on HCT-15, greater than 100 µM. In addition, the GI50 with KM12 was 54.1 µM (inactive); in the test on HOP-62, > 100 µM (inactive); in the test on SF-295, 37.7 µM (inactive); in the test with K562 it was 22.8 µM (inactive); with HL-60 it was 12.5 µM (inactive); in the test with OVCAR-4 it was 41.1 µM (inactive). Moreover, the GI50 was 14.5 µM (inactive) with CCRF-CEM; 24.8 µM (inactive) with DMS-114; > 100 µM (inactive) in the test on SNB-75; 90.6 µM (inactive) with HCT-116; 88.7 µM (inactive) in the test on NCI-H23.

Take `O=C(c1ccccc1)C(c1ccccc1)C1(O)C(=O)Nc2c(Cl)ccc(Cl)c21` (stereo not given): the GI50 in the test with SW-620 is 16.7 µM (inactive); in the test on EKVX, 18.2 µM (inactive); in the test with UO-31, 20.2 µM (inactive); with IGROV-1 it was 20.6 µM (inactive); in the test with ACHN, 16.9 µM (inactive); with HCT-15 it was 18.4 µM. Moreover, the GI50 was 18.2 µM (inactive) with KM12; 21.4 µM (inactive) in the test on HOP-62; 16.5 µM (inactive) in the test with SF-295; 12.5 µM (inactive) with K562; 15.6 µM (inactive) with HL-60; 3.73 µM (inactive) with OVCAR-4. For the same molecule, the GI50 in the test on CCRF-CEM is 12.2 µM (inactive); in the test on DMS-114, 17 µM (inactive); in the test on SNB-75, 16.8 µM (inactive); with HCT-116 it was 16.3 µM (inactive); with NCI-H23, 16.3 µM (inactive).

As to `O=C(c1ccccc1)N1CCc2c([nH]c3ccccc23)C1`, the GI50 with SW-620 was 37.5 µM (inactive); in the test on EKVX, 44.6 µM (inactive); with UO-31 it was 22.5 µM (inactive); in the test on IGROV-1, 52.2 µM (inactive); in the test on ACHN, 36.9 µM (inactive); in the test with HCT-15, 49.1 µM. The GI50 was 48.8 µM (inactive) in the test with KM12; 91.2 µM (inactive) in the test with HOP-62; 36.6 µM (inactive) in the test with SF-295; 45.4 µM (inactive) with K562; 15.7 µM (inactive) with HL-60; 53 µM (inactive) in the test on OVCAR-4. For the same molecule, the GI50 in the test with CCRF-CEM is 44.6 µM (inactive); in the test with DMS-114, 20.4 µM (inactive); with SNB-75 it was 66.8 µM (inactive); with HCT-116, 38 µM (inactive); in the test on NCI-H23, 33.4 µM (inactive).

Take `Oc1ncnc2c1nnn2CCCCCCCCCCCCn1nnc2c(O)ncnc21`: the GI50 in the test with SW-620 was > 100 µM (inactive); with EKVX, 21.3 µM (inactive); in the test on UO-31 it was 25.7 µM (inactive); in the test on IGROV-1 it was 22.2 µM (inactive); in the test on ACHN, 32.3 µM (inactive); with HCT-15 it was greater than 100 µM. For the same molecule, the GI50 was > 100 µM (inactive) in the test with KM12; > 100 µM (inactive) with DU-145; 21.7 µM (inactive) in the test with HOP-62; 14.5 µM (inactive) with SF-295; > 100 µM (inactive) in the test with K562; 18.9 µM (inactive) in the test on Hs-578T. Further, the GI50 with HL-60 was > 45.4 µM (inactive); in the test on OVCAR-4, > 90.6 µM (inactive); in the test on CCRF-CEM, > 100 µM (inactive); in the test with DMS-114, 7.06 µM (inactive); with SNB-75, > 40.9 µM (inactive); with HCT-116 it was 18.2 µM (inactive). For the same molecule, the GI50 with MDA-N was > 100 µM (inactive); with NCI-H23, 5.68 µM (inactive).

For `CCn1c2c(n(CC)c1=S)-c1c(n(CC)c(=S)n1CC)SSSS2`, the GI50 was 1.67 µM (inactive) with SW-620; 14.5 µM (inactive) in the test with EKVX; 12.7 µM (inactive) in the test on UO-31; 17.8 µM (inactive) in the test with IGROV-1; 5.02 µM (inactive) in the test with ACHN; 4.49 µM in the test with HCT-15. Moreover, the GI50 is 19.2 µM (inactive) in the test on KM12; > 100 µM (inactive) in the test with DU-145; > 100 µM (inactive) in the test with HOP-62; 40.7 µM (inactive) in the test with SF-295; 1.03 µM (active) with K562; 0.308 µM (active) in the test on Hs-578T. Besides, the GI50 is 2.9 µM (inactive) in the test on HL-60; 9.53 µM (inactive) in the test on OVCAR-4; 1.24 µM (inactive) in the test with CCRF-CEM; 15.8 µM (inactive) in the test with DMS-114; 1.91 µM (inactive) in the test with SNB-75; 3.4 µM (inactive) in the test with HCT-116. For the same molecule, the GI50 with MDA-N is > 10 µM (inactive); with NCI-H23, 8.75 µM (inactive).

For the origin of these results see ChEMBL document CHEMBL1201862, “PubChem BioAssay data set” (2004).
